Experiment [1] concerns the target T1, cGMP-specific 3',5'-cyclic phosphodiesterase (Homo sapiens, UniProt O76074). Briefly: Inhibitory activity against Phosphodiesterase 5 (PDE5) was evaluated.
The nature of experiment [2]: Selective inhibition of PDE5 versus PDE6 in retinal rod.
Experiment [3] is described as follows: Selective inhibition of PDE5 versus PDE6 in retinal cone.
For experiment [4], the species on record is Canis familiaris. Briefly: Effective dose in dogs. The format is functional. Particulars: Canis lupus familiaris.
For experiment [5], the species on record is Canis familiaris. The experiment is described as follows: Dose required for potentiated ICP increase in dogs. Format: functional, Canis lupus familiaris.
For experiment [6], the target named is T1, cGMP-specific 3',5'-cyclic phosphodiesterase. The experiment is described as follows: Inhibition of PDE5.

The structures appear in SMILES notation.

Regarding `O=C(c1ccccc1)N1Cc2c(nc3ccccc3c2O)C1c1ccc2c(c1)OCO2` (stereo not drawn), the Ki (commonly a dissociation constant, usually derived from enzyme kinetics or from competition with a known ligand) in experiment [1] is 2490 pM.

In experiment [1], `N#Cc1ccc(-c2ccc(C(=O)N3Cc4c(nc5ccccc5c4O)C3c3ccc4c(c3)OCO4)o2)cc1` (stereo not drawn) showed a Ki of 2710 pM.

Consider `O=C(c1ccc(-c2ccncc2)o1)N1Cc2c(nc3ccccc3c2O)C1c1ccc2c(c1)OCO2` (stereo not drawn), for which the Ratio in experiment [2] is 23; in experiment [3], 34. Moreover, the affinity in experiment [1] corresponds to a Ki of 310 pM.

On to `O=C(c1ccc(-c2cccc([N+](=O)[O-])c2)o1)N1Cc2c(nc3ccccc3c2O)C1c1ccc2c(c1)OCO2` (stereo not drawn), for which the Ki in experiment [1] was determined as 1300 pM.

As for `CS(=O)(=O)Nc1ccc(-c2ccc(C(=O)N3Cc4c(nc5ccccc5c4O)C3c3ccc4c(c3)OCO4)o2)cc1` (stereo not drawn), the 50% effect level in the experiment listed under Canis familiaris [4] (ED50) was put at a dose of 0.284 mg/kg. In addition, in experiment [1], affinity was put at a Ki of 240 pM. Further, the Dose in the experiment listed under Canis familiaris [5] turned out to be 0.3 mg/kg.

Regarding `O=C(c1ccc(-c2ccc(O)cc2)o1)N1Cc2c(nc3ccccc3c2O)C1c1ccc2c(c1)OCO2` (stereo not drawn), the affinity in experiment [1] corresponds to a Ki of 730 pM.

On to `O=C(c1ccc(Br)o1)N1Cc2c(nc3ccccc3c2O)C1c1ccc2c(c1)OCO2` (stereo not drawn), for which affinity in experiment [1] was put at a Ki of 2070 pM.

As for `Cc1ccc(-c2ccc(C(=O)N3Cc4c(nc5ccccc5c4O)C3c3ccc4c(c3)OCO4)o2)cc1` (stereo not drawn), in experiment [1], the affinity, expressed as Ki, was 2640 pM.

Regarding `O=C(c1cc2ccc(O)cc2o1)N1Cc2c(nc3ccccc3c2O)C1c1ccc2c(c1)CCO2` (stereo not drawn), the results for the Ratio in experiment [2] and in experiment [3] were 291 and 646, respectively. The molecule also displayed a Ki in experiment [1] of 1740 pM.

As for `CN1CCN(C(=O)c2ccc(-c3ccc(C(=O)N4Cc5c(nc6ccccc6c5O)C4c4ccc5c(c4)OCO5)o3)cc2)CC1` (racemic) [listing 1 of 2 here], in experiment [1], the Ki was 1820 pM.

Regarding `O=C(c1ccc(-c2ccc(CO)cc2)o1)N1Cc2c(nc3ccccc3c2O)C1c1ccc2c(c1)OCO2` (stereo not drawn), in experiment [1], the Ki is 610 pM.

`CN(C)c1ccc(-c2ccc(C(=O)N3Cc4c(nc5ccccc5c4O)C3c3ccc4c(c3)OCO4)o2)cc1` (stereo not drawn): affinity in experiment [1] was put at a Ki of 3740 pM.

As to `O=C(c1ccc(-c2ccsc2)o1)N1Cc2c(nc3ccccc3c2O)C1c1ccc2c(c1)OCO2` (stereo not drawn), the affinity in experiment [1], expressed as Ki, was 710 pM.

For the molecule `CN1CCN(C(=O)c2ccc(-c3ccc(C(=O)N4Cc5c(nc6ccccc6c5O)C4c4ccc5c(c4)CCO5)o3)cc2)CC1` (stereo not drawn), the Ratio in experiment [2] came to 13; in experiment [3], 12.

As for `O=C(c1ccc(-c2cccnc2)o1)N1Cc2c(nc3ccccc3c2O)C1c1ccc2c(c1)OCO2` (stereo not drawn), the Ratio in experiment [2] came to 144; in experiment [3] it was 108. In addition, in experiment [1], the Ki was 150 pM.

As to `O=C(c1ccc(-c2cccc(C(F)(F)F)c2)o1)N1Cc2c(nc3ccccc3c2O)C1c1ccc2c(c1)OCO2` (stereo not drawn), the Ki in experiment [1] worked out at 980 pM.

For the molecule `O=C(c1ccc(-c2cccc(CO)c2)o1)N1Cc2c(nc3ccccc3c2O)C1c1ccc2c(c1)OCO2` (stereo not drawn), the affinity in experiment [1], expressed as Ki, was 470 pM.

`COc1ccc(-c2ccc(C(=O)N3Cc4c(nc5ccccc5c4O)C3c3ccc4c(c3)OCO4)o2)cc1` (stereo not drawn) registered a Ki in experiment [1] of 1710 pM.

Molecule `O=C(c1ccc(-c2ccco2)o1)N1Cc2c(nc3ccccc3c2O)C1c1ccc2c(c1)OCO2` (stereo not drawn) showed an inhibition constant Ki in experiment [1] of 4660 pM.

For the molecule `CN1CCN(C(=O)c2ccc(-c3ccc(C(=O)N4Cc5c(nc6ccccc6c5O)C4c4ccc5c(c4)OCO5)o3)cc2)CC1` (racemic) [listing 2 of 2 here], the Ratio in experiment [2] and in experiment [3] was 2 each time.

`O=C(c1ccc(-c2ccccc2)o1)N1Cc2c(nc3ccccc3c2O)C1c1ccc2c(c1)OCO2` (stereo not drawn) came in with a Ki in experiment [1] of 2090 pM.

Consider `O=Cc1ccc(-c2ccc(C(=O)N3Cc4c(nc5ccccc5c4O)C3c3ccc4c(c3)OCO4)o2)cc1` (stereo not drawn), for which affinity in experiment [6] was put at a Ki of 2590 pM.

In the case of `O=C(c1cc2ccc(O)cc2o1)N1Cc2c(nc3ccccc3c2O)C1c1ccc2c(c1)OCO2` (stereo not drawn), the results for the Ratio in experiment [2] and in experiment [3] were 31 and 29, respectively. The molecule also yielded an inhibition constant Ki in experiment [1] of 350 pM.

In the case of `O=C(c1ccc(-c2ccc(OCCN3CCCC3)cc2)o1)N1Cc2c(nc3ccccc3c2O)C1c1ccc2c(c1)OCO2` (stereo not drawn), the Ki in experiment [1] is 760 pM.

In turn, `O=C(c1ccc(-c2cccnc2)o1)N1Cc2c(nc3ccccc3c2O)C1c1ccc2c(c1)CCO2` (stereo not drawn) registered an inhibitory constant (Ki) in experiment [1] of 530 pM.

`CN1CCN(C(=O)c2ccc(-c3ccc(C(=O)N4Cc5c(nc6ccccc6c5O)C4c4ccc5c(c4)OCO5)o3)cc2)CC1` (single isomer, unassigned; (-)) [listing 1 of 2 here] had an inhibition constant Ki in experiment [1] of 200 pM.

For `CN1CCN(C(=O)c2ccc(-c3ccc(C(=O)N4Cc5c(nc6ccccc6c5O)C4c4ccc5c(c4)OCO5)o3)cc2)CC1` (single isomer, unassigned; (-)) [listing 2 of 2 here], the figures for the Ratio in experiment [2] and in experiment [3] were 13 and 13.2, respectively.

`COC(=O)c1ccc(-c2ccc(C(=O)N3Cc4c(nc5ccccc5c4O)C3c3ccc4c(c3)OCO4)o2)cc1` (stereo not drawn): in experiment [1], the affinity, expressed as Ki, was 990 pM.

With `O=C(O)c1ccc(-c2ccc(C(=O)N3Cc4c(nc5ccccc5c4O)C3c3ccc4c(c3)OCO4)o2)cc1` (stereo not drawn), the inhibitory constant (Ki) in experiment [1] was determined as 1010 pM.

The molecule `O=C(c1ccc(-c2ccc([N+](=O)[O-])cc2)o1)N1Cc2c(nc3ccccc3c2O)C1c1ccc2c(c1)OCO2` (stereo not drawn) showed an inhibitory constant (Ki) in experiment [1] of 610 pM.

The values are drawn from ChEMBL document CHEMBL1145958, “Furoyl and benzofuroyl pyrroloquinolones as potent and selective PDE5 inhibitors for treatment of erectile dysfunction” (J Med Chem, 2003).
